The subject of data set [1] is HuH-7 cells. Briefly: Growth inhibitory effect on cancer cells (WST assay), Example 2.3. It is filed as cell-based, human. The following applies: HuH-7 cells, WST assay, concentrations 0-50 μM, control 0.1% DMSO. The method, boiled down:
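HuH-7 human hepatoma cells seeded at 5×10^3 cells/well, treated after 24 h with compound at 0–50 μM (0.1% DMSO vehicle control), n=3. Viability read by WST (CCK-8) absorbance at 450/600 nm after 60 min at 37 °C, taken 0, 24, 48 and 96 h post-treatment; kit-only blank subtracted.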

A short description of data set [2]: Liver cancer model mouse, body weight. The following applies: 30 mg/kg 5-FU or 50 mg/kg IC-2 intraperitoneally every three days. It is filed as in vivo, mice. As for the experimental part:
CD44-positive HuH-7 cells were subcutaneously transplanted in mice. Next, the engrafted mice were divided into 3 groups (DMSO group: 5 mice; 5-FU group: 4 mice; and IC-2 group: 4 mice). Then, DMSO was added to prepare 30 mg/kg of 5-FU and 50 mg/kg of IC-2 such that each liquid volume was 100 μL; and 100% DMSO, a solvent for each drug, was used as a control sample. Subsequently, each drug was dosed intraperitoneally every three days. The body weight of each mouse and the long and short diameters of a tumor were measured every three days. The tumor volume was calculated by using the following equation: Tumor volume=Long diameter×(Short diameter)^2×0.5. The volume at Day 0 was used to normalize each tumor volume, and then a graph was created. To fully evaluate a 5-FU effect, the 5-FU dose was set to an amount 2 times the regular amount 15 mg/kg used in research articles. The concentration of IC-2 corresponding to a concentration at which Wnt/β-catenin signaling was inhibited in vitro was calculated. Then, the concentration was doubled to set an IC-2 dose.

Another data set concerns CD44high DLD-1 cells. Briefly: CD44high cells in DLD-1 cells (FCM analysis). The data set is classed as cell-based, human. The note with it: 48 h, 50 μM IC-2, 0.5 or 5 μM 5-FU, compared with control. As for the experimental part: In addition, DLD-1 cells were seeded at 1×10^6 cells/10-cm cell culture dish. After 24 h, the cells were treated with 0.5 or 5 μM of 5-FU or 50 μM of IC-2. At additional 48 h, the cells were harvested. As a primary antibody, used was a mouse anti-human CD44 antibody (Abcam Ltd., Cambridge, UK). Then, Alexa Fluor 488-labeled goat anti-mouse IgG (H+L) (Life Technologies Corp., Carlsbad, Calif.) was used. After that, a MoFlo XDP (Beckman Coulter Inc., Fullerton, Calif.) was used for analysis.

For data set [3], the system named is HuH-7 cells. Briefly: Growth inhibitory effect on cancer cells (WST assay), Example 6.3. It is filed as cell-based, human. The method, then:
HuH-7 cells, a human liver cancer cell line, were cultured on 10-cm cell culture dishes (TPP Techno Plastic Products AG, Trasadingen, Switzerland) by using DMEM under conditions at 5% CO2, 37° C., and 100% humidity. When the cells were 70 to 90% confluent, 200 μL of 0.25% Trypsin/1 mM EDTA solution, which had been prepared by diluting the stock solution 10-fold with PBS (−), was added to detach the cells. Then, the cells were centrifuged at 1000 rpm for 3 min at room temperature. The cells recovered were subcultured at a 1:4 split ratio.
First, 70 to 90% confluent HuH-7 cells were harvested and seeded (n=3) at 1×10^4 cells/well of a 96-well plate (TPP). After 24 h, IC-2 was added to the cells and the mixture was cultured at 37° C. Each control sample (0 μM) used was 1% DMSO, a solvent for each compound. The concentrations of IC-2 used were 0, 1, 5, 10, 25, and 50 μM
Next, day 4 after the IC-2 treatment, 100 μL of DMEM-diluted 10% Cell Counting Kit-8 (DOJINDO LABORATORIES, Kumamoto) was added. The mixture was incubated at 37° C. for 60 min and its absorbance (at a measurement wavelength of 450 nm/control wavelength of 600 nm) was measured by using a Sunrise Rainbow RC (Tecan Group Ltd., Mannedorf, Switzerland). Absorbance for the cells alone was calculated by subtracting, from the reading obtained, absorbance for 10% Cell Counting Kit-8 alone. […]

The next data set deals with unsorted HuH-7 cells. Briefly: Mice subcutaneously transplanted with unsorted HuH-7 cells. It is filed as in vivo. The following applies: mice transplanted with unsorted HuH-7 cells instead of CD44-positive HuH-7 cells. An excerpt: The effect of treating malignant tumors may be evaluated by imaging, endoscopic examination, biopsy, or detection of a malignant tumor marker. In addition, the effect of treating cancer stem cells may be evaluated by imaging, endoscopic examination, biopsy, or detection of a cancer stem cell marker. In addition, the effect of treating fibrosis may be evaluated by imaging, endoscopic examination, biopsy, or detection of a fibrosis marker. […] At this time, the level of a marker after administration of a therapeutic drug may be 0.7, 0.5, 0.3, or 0.1 times the level before the administration (or of a control). […] At this time, the number of marker-positive cells after administration of the therapeutic drug may be 0.7, 0.5, 0.3, or 0.1 times the number before the administration (or of a control). Note that in Example 6 below, the therapeutic effect was evaluated using mice in which CD44-positive HuH-7 cells had been subcutaneously transplanted. The present inventors also replaced the above CD44-positive HuH-7 cells by unsorted HuH-7 cells.

Broadly, the IC50 is the concentration needed to halve the response being measured. Higher therefore signals weaker potency in that assay. In the case of `COc1ccc(COc2ccc(CNC(=O)N3CCC(=O)N4C(Cc5ccccc5)C(=O)N(Cc5cccc6ccccc56)CC34)cc2)cc1` (stereo not drawn) [IC-2-OPMB], in the data set on HuH-7 cells [1], the half-inhibitory concentration (IC50) was more than 50 µM.
As to `O=C1C(Cc2ccccc2)N2C(=O)CCN(C(=O)NCc3ccccc3)C2CN1Cc1cccc2ccccc12` (stereo not drawn) [IC-2], in data set [2], the body weight result is on record as “no change in the body weight”. Further, the “percentage of CD44high cells” value in the data set on CD44high DLD-1 cells is given as “significantly reduced the percentage of CD44^high cells”. Besides, in the data set on HuH-7 cells [3] (day 4), the “growth of HuH-7 cells” value is given as “inhibited the growth of HuH-7 cells”. In the data set with HuH-7 cells [3] (day 4, 0-50 μM, control 1% DMSO), this compound had an IC50 of 25.9 µM. Further, the “effect of treating a malignant tumor” value in the data set with unsorted HuH-7 cells was “exhibits an effect of treating a malignant tumor”.

For the origin of these results see US10597398B2, “Suppression and regeneration promoting effect of low molecular weight compound on cancer and fibrosis” (NATIONAL UNIVERSITY CORPORATION TOTTORI UNIVERSITY, priority 2015, dated 2020).
